From the supplement of paper PMC6045584
± gives the standard deviation of the averaged measurements.

Experiments:
NUTLIN3 [1] = compound: T1, COc1ccc(C2=N[C@@H](c3ccc(Cl)cc3)[C@@H](c3ccc(Cl)cc3)N2C(=O)N2CCNC(=O)C2)c(OC(C)C)c1 [NUTLIN3]; experiment: surviving fraction relative to DMSO-only wells; higher = less growth inhibition; settings: exposure time: 5 days
How it was run: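 At 250–500 cells per well in 384-well plates, log-phase tumour cell lines were seeded and, 24 hours on, exposed continuously for five days to inhibitors at 0.5, 1, 5, 10, 50, 100, 500 and 1000 nM. Viability readout was CellTiter-Glo luminescence, reported as surviving fraction normalised to the median of DMSO-only wells.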

17-AAG = compound: C=CCNC1=C2C[C@@H](C)C[C@H](OC)[C@H](O)[C@@H](C)/C=C(\C)[C@H](OC(N)=O)[C@@H](OC)/C=C\C=C(/C)C(=O)NC(=CC1=O)C2=O [17-AAG]; experiment: area under dose-response curve of surviving fraction (unscaled, Aref=0) (surviving fraction x log10(nM)); higher = more resistant; settings: exposure time: 5 days; dose range 0.5-1000 nM
How it was run: (§1)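 Tumour cell lines in 384-well plates were exposed for five days to eight inhibitor concentrations from 0.5 to 1000 nM. Viability was read by CellTiter-Glo luminescence, normalised to DMSO-only wells, in three screens per line. Dose-response survival curves were fitted to surviving fractions by 3-parameter logistic regression in the drc R package. Area under the curve is the unscaled activity area (Aref = 0) over log10 dose.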

[2] = compound: CCN(CC)CCCCNc1ncc2cc(-c3cc(OC)cc(OC)c3)c(NC(=O)NC(C)(C)C)nc2n1; experiment: as above; settings: exposure time: 5 days; dose range 0.5-1000 nM
How it was run: as §1

SALINOMYCIN = compound: CC[C@@H](C(=O)[C@@H](C)[C@@H](O)[C@H](C)[C@@H]1O[C@@H]([C@@H](CC)C(=O)O)CC[C@@H]1C)[C@H]1O[C@]2(C=C[C@@H](O)[C@]3(CC[C@@](C)([C@H]4CC[C@](O)(CC)[C@H](C)O4)O3)O2)[C@H](C)C[C@@H]1C [SALINOMYCIN]; experiment: as above; settings: exposure time: 5 days; dose range 0.5-1000 nM
How it was run: as §1

FLAVOPIRIDOL = compound: CN1CC[C@H](c2c(O)cc(O)c3c(=O)cc(-c4ccccc4Cl)oc23)[C@H](O)C1 [FLAVOPIRIDOL]; experiment: as above; settings: exposure time: 5 days; dose range 0.5-1000 nM
How it was run: as §1

NUTLIN3 [3] = compound: T1, NUTLIN3; experiment: as above; settings: exposure time: 5 days; dose range 0.5-1000 nM
How it was run: as §1

DOXORUBICIN = compound: COc1cccc2c1C(=O)c1c(O)c3c(c(O)c1C2=O)C[C@@](O)(C(=O)CO)C[C@@H]3O[C@H]1C[C@H](N)[C@H](O)[C@H](C)O1 [DOXORUBICIN]; experiment: as above; settings: exposure time: 5 days; dose range 0.5-1000 nM
How it was run: as §1

VISMODEGIB = compound: CS(=O)(=O)c1ccc(C(=O)Nc2ccc(Cl)c(-c3ccccn3)c2)c(Cl)c1 [VISMODEGIB]; experiment: as above; settings: exposure time: 5 days; dose range 0.5-1000 nM
How it was run: as §1

DECITABINE = compound: Nc1ncn([C@H]2C[C@H](O)[C@@H](CO)O2)c(=O)n1 [DECITABINE]; experiment: as above; settings: exposure time: 5 days; dose range 0.5-1000 nM
How it was run: as §1

FLUOROURACIL = compound: O=c1[nH]cc(F)c(=O)[nH]1 [FLUOROURACIL]; experiment: as above; settings: exposure time: 5 days; dose range 0.5-1000 nM
How it was run: as §1

RESVERATROL = compound: Oc1ccc(/C=C/c2cc(O)cc(O)c2)cc1 [RESVERATROL]; experiment: as above; settings: exposure time: 5 days; dose range 0.5-1000 nM
How it was run: as §1

2-METHOXYESTRADIOL = compound: COc1cc2c(cc1O)CC[C@@H]1[C@@H]2CC[C@]2(C)[C@@H](O)CC[C@@H]12 [2-METHOXYESTRADIOL]; experiment: as above; settings: exposure time: 5 days; dose range 0.5-1000 nM
How it was run: as §1

ABT-737 = compound: CN(C)CC[C@H](CSc1ccccc1)Nc1ccc(S(=O)(=O)NC(=O)c2ccc(N3CCN(Cc4ccccc4-c4ccc(Cl)cc4)CC3)cc2)cc1[N+](=O)[O-] [ABT-737]; experiment: as above; settings: exposure time: 5 days; dose range 0.5-1000 nM
How it was run: as §1

Test System	surviving fraction (NUTLIN3 [1]; 0.5 nM)	surviving fraction (NUTLIN3 [1]; 1 nM)	surviving fraction (NUTLIN3 [1]; 5 nM)	surviving fraction (NUTLIN3 [1]; 10 nM)	surviving fraction (NUTLIN3 [1]; 50 nM)	surviving fraction (NUTLIN3 [1]; 100 nM)	surviving fraction (NUTLIN3 [1]; 500 nM)	surviving fraction (NUTLIN3 [1]; 1000 nM)	area under dose-response curve (17-AAG)	area under dose-response curve [2]	area under dose-response curve (SALINOMYCIN)	area under dose-response curve (FLAVOPIRIDOL)	area under dose-response curve (NUTLIN3 [3])	area under dose-response curve (DOXORUBICIN)	area under dose-response curve (VISMODEGIB)	area under dose-response curve (DECITABINE)	area under dose-response curve (FLUOROURACIL)	area under dose-response curve (RESVERATROL)	area under dose-response curve (2-METHOXYESTRADIOL)	area under dose-response curve (ABT-737)
22RV1 PROSTATE	1.01 ± 0.046	1.04 ± 0.013	0.96 ± 0.068	0.99367 ± 0.00058	0.981 ± 0.079	1.01 ± 0.074	0.95 ± 0.062	0.777 ± 0.047	2.24	3.33	2.38	2.35	3.26	1.31	3.35	2.81	3.25	3.4		
93VU HEADNECK	1 ± 0.12	0.982 ± 0.14	1.09 ± 0.1	1.1 ± 0.076	1.12 ± 0.12	1.21 ± 0.013	1.05 ± 0.12	1.02 ± 0.025	2.32		2.79	2.13	3.56	2.39		3.07	3.04	3.7	3.08	
143B BONE	1.04 ± 0.019	1.02 ± 0.022	1.03 ± 0.029	1.024 ± 0.0085	1.06 ± 0.039	1.029 ± 0.0099	1.05 ± 0.017	1.01 ± 0.073	2.38	3.04	3.23		3.5	2.11	3.22					
ASKA SYNOVIAL	1.04 ± 0.04	1.13 ± 0.039	1.2 ± 0.055	1.03 ± 0.015	1.02 ± 0.064	1.05 ± 0.041	0.748 ± 0.035	0.512 ± 0.014	1.27		3.15	2.27		0.989	3.21	3.08		3.84	3.04	
BT20 BREAST	1.1 ± 0.18	1.11 ± 0.14	1.09 ± 0.07	1.01 ± 0.14	1.05 ± 0.24	1.07 ± 0.23	1.15 ± 0.25	1.12 ± 0.18	1.37	3.96	3.84	2.22	3.59	1.48	3.18	4.16		3.71		
CHLA90 AUTONOMIC GANGLIA	1.02 ± 0.018	1.05 ± 0.043	1 ± 0.039	0.923 ± 0.025	0.987 ± 0.049	1.01 ± 0.019	1.06 ± 0.022	1.02 ± 0.066	2.06	2.92	2.67	2.36	3.33	1.8	3.12			3.38	3.22	3.26
CME SYNOVIAL	1.18 ± 0.1	1.29 ± 0.17	1.32 ± 0.16	1.24 ± 0.13	1.36 ± 0.16	1.44 ± 0.19	1.4 ± 0.073	1.22 ± 0.09	1.9	3.88	2.88	2.35	4.32	1.52	3.77	2.82		4.4		4.41
